Here are results for 1 compound from article PMC8472378, “Desferrioxamine B-Mediated Pre-Clinical In Vivo Imaging of Infection by the Mold Fungus Aspergillus fumigatus” (Journal of Fungi, 2021).

Series [1] deals with pulmonary A. fumigatus infection. The series is described as follows: PET/CT imaging in rat model of pulmonary aspergillosis. As to conditions: A. fumigatus-infected rats, r.o. injection. Format: in vivo, Lewis rats. On the procedure: (§1) A previously described rat model of pulmonary aspergillosis was used for the in vivo experiments. The introduction of A. fumigatus spores into animals, injection of radiolabeled siderophores and small animal imaging were carried out under 2% isoflurane anesthesia (FORANE, Abbott Laboratories, Abbott Park, IL, USA) to minimize animal suffering and prevent animal motion. Infection in the lung of immunodeficient rats was established by intratracheal inoculation of 100 μL of A. fumigatus spores (10^9 CFU/mL A. fumigatus ATCC 46645; American Type Culture Collection) using the TELE PACK VET X LED system equipped with a flexible endoscope (https://www.karlstorz.com/cps/rde/xbcr/karlstorz_assets/ASSETS/3386919.pdf, accessed on 20 August 2021; Karl Storz GmbH & Co. KG, Tuttlingen, Germany). Depending on the development of the infection, experimental animals underwent an ex vivo biodistribution study or PET/CT imaging, typically 2–4 days after inoculation.
µPET/CT images were acquired with an Albira PET/SPECT/CT small animal imaging system (Bruker Biospin Corporation, Woodbridge, CT, USA). […] After reconstruction, acquired data were viewed, analyzed and processed using the appropriate software (PMOD software, PMOD Technologies Ltd., Zurich, Switzerland and VolView software, Kitware, Clifton Park, NY, USA).

For series [2] the test system is unchanged. The series is described as follows: Ex vivo biodistribution in A. fumigatus-infected rats. Further details: species or system rat. The following applies: 45 min p.i. On the procedure: as §1
A. fumigatus-infected rats were retro-orbitally (r.o.) injected with [^67Ga]- and [^68Ga]Ga-DFO-B and DFO-E. One infected rat (rat 1) was injected with [^68Ga]Ga-DFO-B and [^67Ga]Ga-DFO-E, while the second rat (rat 2) was […] with [^67Ga]Ga-DFO-B and [^68Ga]Ga-DFO-E (~0.5 MBq and ~0.5 µg of each DFO-B and DFO-E per rat). Rats were sacrificed by exsanguination 45 min post-injection (p.i.). Organs and tissues of interest (blood, spleen, pancreas, kidneys, liver, heart, muscle and lung) were removed and weighed. The amount of radioactivity in the samples was measured in a γ-counter (2480 Wizard-2; Perkin Elmer, Waltham, MA, USA). First, a short-lived ^68Ga was measured immediately after organ removal in the 511 ± 100 keV energy window, and ^67Ga was measured after 24 h in the 185 ± 100 keV energy window. The results are expressed as percentage of injected dose per gram of organ (%ID/g).

Series [3] deals with A. fumigatus strain Afs77. The series is described as follows: Short-term siderophore uptake analysis. It counts as cell-based, Aspergillus fumigatus. The following applies: 45 min at 37 °C. On the procedure: Short-term uptake of siderophore-complexed ^68Ga was analyzed as described previously. A. fumigatus strain Afs77 [25] was grown for 18 h at 37 °C in 100 mL Aspergillus minimal medium (AMM) according to Pontecorvo et. al. with 1% (w/v) glucose as the carbon source and 20 mM glutamine as the nitrogen source, using iron-free trace elements to induce iron limiting for the transcriptional activation of siderophore uptake. To generate iron-replete mycelia for the transcriptional downregulation of siderophore uptake, the growth medium contained an additional 0.03 mM FeSO4. For the analysis of the pH-dependent siderophore uptake, the pH of the fungal culture medium was adjusted with HCl (1 M) and NaOH (1 M) immediately before the uptake analyses. Uptake assays were performed with 180 µL of liquid A. fumigatus culture added to a prewetted 96-well MultiScreen Filter Plates HTS (1 μm glass fiber filter, Merck Millipore, Darmstadt, Germany). Then, 50 µL of radioactive labelled siderophores (~100 nM) were added to the culture and incubated for 45 min at 37 °C. After washing two times with ice-cold TRIS buffer, the dried filters were measured in a γ-counter.

For series [4] the following is noted: non-infected rats; cited from earlier work.
Details of series [5]: method as in PMID 32734456. As to conditions: cited from earlier work.
On the set-up of series [6]: method as in PMID 32734456. The following applies: cited from earlier work. This is another data set of the same source.
On the set-up of series [7]: method as in PMID 32734456. As to conditions: healthy mice; cited from earlier work.
Another series has as its system A. fumigatus. The following applies: cited from earlier work.
For another series, the system named is Pseudomonas aeruginosa. As to conditions: cited from earlier work.
For a further series, the system named is Klebsiella pneumoniae. As to conditions: cited from earlier work.
A further series deals with Staphylococcus aureus. The following applies: cited from earlier work.
The subject of a further series is Streptococcus agalactiae. Further details: method as in PMID 22172389, PMID 32734456. As to conditions: cited from earlier work.
For the next series, the system named is Escherichia coli. Further details: method as in PMID 22172389, PMID 32734456. The following applies: cited from earlier work.

For the compound `CC(=O)N([O-])CCCCCNC(=O)CCC(=O)N([O-])CCCCCNC(=O)CCC(=O)N([O-])CCCCCN.[68Ga+3]` [[^68Ga]Ga-DFO-B], the “elimination of unbound tracer” value in [1] (PET/CT 45 min p.i.) is “rapidly eliminated via the renal system”. Further, in [1] (static PET/CT 45 min p.i.), the “PET/CT imaging of the infected area in the lungs” value is given as “clear depiction of the infected area in the lungs”. In addition, the “ratio of activity in lung vs. blood” value is given as “about 17” in [2] (infected rat 1 (injected with [68Ga]Ga-DFO-B and [67Ga]Ga-DFO-E)); approximately 8 in series [2] (infected rat 2 (injected with [67Ga]Ga-DFO-B and [68Ga]Ga-DFO-E)). Moreover, in series [2] (infected rats), the “radioactivity accumulation in non-infected organs (blood, spleen, pancreas, liver, heart and muscle)” value is listed as “low radioactivity accumulation”. For the same compound, in [2] (infected rats), the route of excretion entry is reported as “primary excretion via kidneys”. For the same compound, the “uptake efficacy compared to [68Ga]Ga-DFO-E” value in [3] (pH 5, iron-limited culture) is “approximately 20%”; in [3] (pH 7, iron-limited culture) it was “about 50%”; in series [3] (pH 9, iron-limited culture), approximately 80%. Besides, the “accumulation in the lungs” value in series [4] was “negligible accumulation”. For the same compound, in series [4], the “ratio of 68Ga activity in lung vs. blood” value is listed as 0.84. The protein binding result in series [5] is “low protein binding”. Besides, in series [6], the “stability in human serum and PBS” value is listed as “high stability”. Moreover, the renal excretion entry in [7] is reported as “rapid renal excretion”. Also, the “retention in the blood and other organs” value in series [7] is recorded as “minimal retention”. The in vitro uptake entry in the series on A. fumigatus is given as “uptake was found”; in the series on Pseudomonas aeruginosa it was “uptake was found”; in the series on Klebsiella pneumoniae, “lack significant uptake”; in the series with Staphylococcus aureus it was “uptake was found”; in the series on Streptococcus agalactiae, “uptake was found”; with Escherichia coli, “lack significant uptake”.
